{"source": "paper PMC3766633", "about": "(Biomaterials, 2013)", "key": {"[1]": {"test_system": "dogs", "conditions": "dog, in vivo; cited from earlier work"}, "[2]": {"conditions": "cell culture and animal studies; cited from earlier work"}, "[3]": {"experiment": "Precipitation / aggregation on mixing with LMWP during coupling", "format": "physicochemical", "conditions": "mixing with LMWP or LMWP-SH during the coupling process, observation"}, "[4]": {"test_system": "male Wistar rats", "experiment": "Subcutaneous injection, hypoglycemic effect", "format": "in vivo, rat", "conditions": "1 IU/kg"}, "[5]": {"test_system": "Caco-2 cell monolayer"}, "[6]": {"test_system": "male Wistar rats", "experiment": "In situ ileal loop absorption experiment, hypoglycemic effect", "conditions": "50 IU/kg"}}, "note": "“Also recorded” adds a separate entry of the source.", "data": [{"substance": "VSRRRRRRGGRRRR [LMWP, Low Molecular Weight Protamine]", "values": [{"measurement": "complement activation", "setting": "[1]", "result": "only minor"}, {"measurement": "hypotensive responses", "setting": "[1]", "result": "non-detectable"}, {"measurement": "cell internalization potency relative to TAT", "setting": "[2]", "result": "equivalent"}]}, {"substance": "Insulin-Polyethylene Glycol-Maleimide [Insulin-PEG-MAL]", "values": [{"measurement": "appearance on mixing / reaction with LMWP (precipitation of insoluble complexes)", "setting": "[3]", "result": "transparent reaction mixture"}]}, {"substance": "Insulin-Polyethylene Glycol-Low Molecular Weight Protamine Conjugate [Insulin-PEG-LMWP]", "values": [{"measurement": "BGL level maintained till the end of the study (10 h)", "setting": "[4]; s.c.", "result": "around 70%"}, {"measurement": "reduction of BGL two hours following subcutaneous injection", "setting": "[4]; s.c., 2 h", "result": "about 30%"}, {"measurement": "bioactivity of insulin after conjugation with LMWP", "setting": "[4]; s.c., compared with s.c. insulin", "result": "not to be impaired"}, {"measurement": "transporting efficiency, times higher than that of native insulin, basolateral-to-apical flux", "setting": "[5]; Caco-2", "result": 4.09, "unit": "times"}, {"measurement": "Peff (permeability coefficient), apical-to-basolateral", "setting": "[5]; Caco-2, pH 7.4", "result": "5.33±0.03 ×10^-6 cm/s"}, {"measurement": "Peff (permeability coefficient), basolateral-to-apical", "setting": "[5]; Caco-2, pH 7.4", "result": "4.95±0.15 ×10^-6 cm/s"}, {"measurement": "drop of BGL soon after administration", "setting": "[6]", "result": 70, "unit": "%"}, {"measurement": "Tmin (time to reach BGLmin)", "setting": "[6]; male Wistar rats, N=6", "result": 6, "unit": "h"}, {"measurement": "BGL level remaining after the minimum", "setting": "[6]; over a period of 10 hours, % of initial value", "result": "30–45%"}]}, {"substance": "insulin", "values": [{"measurement": "appearance on mixing / reaction with LMWP (precipitation of insoluble complexes)", "setting": "[3]", "result": "significant precipitation"}, {"measurement": "time of return of BGL to the basal level (~100%)", "setting": "[4]; s.c.", "result": 6, "unit": "h"}, {"measurement": "BGLmin (minimum blood glucose level)", "setting": "[4]; sc., male Wistar rats, % of initial value, N=6", "result": 65.75, "unit": "%"}, {"measurement": "Tmin (time to reach BGLmin)", "setting": "[4]; sc., male Wistar rats, N=6", "result": 1, "unit": "h"}, {"measurement": "AAC0→10h (area above the curve)", "setting": "[4]; sc., male Wistar rats, trapezoidal method, N=6", "result": 10547, "unit": "%min"}, {"measurement": "PA0→10h (relative pharmacological availability)", "setting": "[4]; sc., reference route, N=6", "result": 100.00, "unit": "%"}, {"measurement": "hypoglycemic effect (decrease in BGL compared with PBS negative control)", "setting": "[6]; male Wistar rats", "result": "no statistically significant decrease; also recorded: virtually no hypoglycemic effects"}, {"measurement": "AAC0→10h (area above the curve)", "setting": "[6]; male Wistar rats, trapezoidal method, N=6", "result": 2751, "unit": "%min"}, {"measurement": "PA0→10h (relative pharmacological availability)", "setting": "[6]; relative to s.c. insulin 1 IU/kg, male Wistar rats, N=6", "result": 0.52, "unit": "%"}]}]}
